# Assay results reported in PubChem BioAssay AID2060495 (Molecular Pharmacology Branch, DTP, NCI, 2025).
# Tested on: 521955-158-R2-J5-PDC complex spheroid viability
# Test: Anticancer human tumor 521955-158-R2-J5-PDC patient-derived pancreatic carcinoma cell line growth inhibition [GQUAD]
# Conditions: for IC50: curve of first compound; for viability, T/C: stronger effect = lower value
# Procedure, shortened: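 Viability of tumor cells grown as complex spheroids with endothelial and stromal cells, exposed to drug combinations. Top concentration at or near clinical Cmax (else 10 microM), diluted in half-log increments.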
# [1] = second compound 0.0316 µM, first compound 0.0316 µM
# [2] = second compound 0.0316 µM, first compound 0.1 µM
# [3] = second compound 0.0316 µM, first compound 0.316 µM
# [4] = second compound 0.0316 µM, first compound 1 µM
# [5] = second compound 0.0316 µM, first compound 3.16 µM
# [6] = second compound 0.0316 µM, first compound 10 µM
# [7] = second compound 0.1 µM, first compound 0.0316 µM
# [8] = second compound 0.1 µM, first compound 0.1 µM
# [9] = second compound 0.1 µM, first compound 0.316 µM
# [10] = second compound 0.1 µM, first compound 1 µM
# [11] = second compound 0.1 µM, first compound 3.16 µM
# [12] = second compound 0.1 µM, first compound 10 µM
# [13] = second compound 0.316 µM, first compound 0.0316 µM
# [14] = second compound 0.316 µM, first compound 0.1 µM
# [15] = second compound 0.316 µM, first compound 0.316 µM
# [16] = second compound 0.316 µM, first compound 1 µM
# [17] = second compound 0.316 µM, first compound 3.16 µM
# [18] = second compound 0.316 µM, first compound 10 µM
# [19] = second compound 1 µM, first compound 0.0316 µM
# [20] = second compound 1 µM, first compound 0.1 µM
# [21] = second compound 1 µM, first compound 0.316 µM
# [22] = second compound 1 µM, first compound 1 µM
# [23] = second compound 1 µM, first compound 3.16 µM
# [24] = second compound 1 µM, first compound 10 µM
# [25] = second compound 3.16 µM, first compound 0.0316 µM
# [26] = second compound 3.16 µM, first compound 0.1 µM
# [27] = second compound 3.16 µM, first compound 0.316 µM
# [28] = second compound 3.16 µM, first compound 1 µM
# [29] = second compound 3.16 µM, first compound 3.16 µM
# [30] = second compound 3.16 µM, first compound 10 µM
# [31] = second compound 10 µM, first compound 0.0316 µM
# [32] = second compound 10 µM, first compound 0.1 µM
# [33] = second compound 10 µM, first compound 0.316 µM
# [34] = second compound 10 µM, first compound 1 µM
# [35] = second compound 10 µM, first compound 3.16 µM
# [36] = second compound 10 µM, first compound 10 µM
# 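Note: spheroids exposed to agents for one week before reading.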
# 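Throughout, for viability, T/C: 100% = DMSO vehicle control viability.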
structure (smiles),measurement,setting,value
CC(=O)O[C@H]1C(=O)[C@@]2(C)[C@H]([C@H](OC(=O)c3ccccc3)[C@]3(O)C[C@H](OC(=O)[C@H](O)[C@@H](NC(=O)c4ccccc4)c4ccccc4)C(C)=C1C3(C)C)[C@]1(OC(C)=O)CO[C@@H]1C[C@@H]2O + CN(C)c1ccc(Nc2c3ccc(NC(=O)CCN4CCCC4)cc3nc3cc(NC(=O)CCN4CCCC4)ccc23)cc1,IC50,second compound 0.0316 µM,< 0.0316 µM
same,IC50,second compound 0.1 µM,0.0448 µM
same,IC50,second compound 0.316 µM,< 0.0316 µM
same,IC50,second compound 1 µM,< 0.0316 µM
same,IC50,second compound 3.16 µM,0.0317 µM
same,IC50,second compound 10 µM,< 0.0316 µM
same,"viability, T/C",[1],46.1%
same,"viability, T/C",[2],40.9%
same,"viability, T/C",[3],35.2%
same,"viability, T/C",[4],32.3%
same,"viability, T/C",[5],27.5%
same,"viability, T/C",[6],34.7%
same,"viability, T/C",[7],55.7%
same,"viability, T/C",[8],37.6%
same,"viability, T/C",[9],30.8%
same,"viability, T/C",[10],23%
same,"viability, T/C",[11],33.9%
same,"viability, T/C",[12],29.9%
same,"viability, T/C",[13],47.7%
same,"viability, T/C",[14],34.1%
same,"viability, T/C",[15],28%
same,"viability, T/C",[16],22.7%
same,"viability, T/C",[17],29.4%
same,"viability, T/C",[18],33.1%
same,"viability, T/C",[19],54.6%
same,"viability, T/C",[20],33%
same,"viability, T/C",[21],28.3%
same,"viability, T/C",[22],33.9%
same,"viability, T/C",[23],39.4%
same,"viability, T/C",[24],38.5%
same,"viability, T/C",[25],50%
same,"viability, T/C",[26],31.1%
same,"viability, T/C",[27],30.3%
same,"viability, T/C",[28],31.5%
same,"viability, T/C",[29],33.4%
same,"viability, T/C",[30],42%
same,"viability, T/C",[31],50.9%
same,"viability, T/C",[32],35.2%
same,"viability, T/C",[33],36.4%
same,"viability, T/C",[34],27.8%
same,"viability, T/C",[35],29.9%
same,"viability, T/C",[36],35.2%
CC(C)n1c(=O)n(C)c2cnc3cc(F)c(-c4ccc(OCCCN5CCCCC5)nc4)cc3c21 + Cc1[nH]c2ccc(F)cc2c1-c1nc2c3cccnc3c3ncccc3c2[nH]1,IC50,second compound 0.0316 µM,> 10 µM
same,IC50,second compound 0.1 µM,> 10 µM
same,IC50,second compound 0.316 µM,> 10 µM
same,IC50,second compound 1 µM,> 10 µM
same,IC50,second compound 3.16 µM,> 10 µM
same,IC50,second compound 10 µM,> 10 µM
same,"viability, T/C",[1],116%
same,"viability, T/C",[2],90.8%
same,"viability, T/C",[3],109%
same,"viability, T/C",[4],84.5%
same,"viability, T/C",[5],101%
same,"viability, T/C",[6],94.4%
same,"viability, T/C",[7],94.8%
same,"viability, T/C",[8],114%
same,"viability, T/C",[9],97.7%
same,"viability, T/C",[10],105%
same,"viability, T/C",[11],115%
same,"viability, T/C",[12],84.8%
same,"viability, T/C",[13],105%
same,"viability, T/C",[14],108%
same,"viability, T/C",[15],116%
same,"viability, T/C",[16],104%
same,"viability, T/C",[17],90.8%
same,"viability, T/C",[18],83.7%
same,"viability, T/C",[19],101%
same,"viability, T/C",[20],113%
same,"viability, T/C",[21],104%
same,"viability, T/C",[22],94.9%
same,"viability, T/C",[23],108%
same,"viability, T/C",[24],91.1%
same,"viability, T/C",[25],107%
same,"viability, T/C",[26],110%
same,"viability, T/C",[27],109%
same,"viability, T/C",[28],102%
same,"viability, T/C",[29],115%
same,"viability, T/C",[30],94.2%
same,"viability, T/C",[31],114%
same,"viability, T/C",[32],92.8%
same,"viability, T/C",[33],115%
same,"viability, T/C",[34],110%
same,"viability, T/C",[35],108%
same,"viability, T/C",[36],79.1%
O=c1[nH]cc(F)c(=O)[nH]1 + CN(C)c1ccc(Nc2c3ccc(NC(=O)CCN4CCCC4)cc3nc3cc(NC(=O)CCN4CCCC4)ccc23)cc1,IC50,second compound 0.0316 µM,> 10 µM
same,IC50,second compound 0.1 µM,> 10 µM
same,IC50,second compound 0.316 µM,> 10 µM
same,IC50,second compound 1 µM,> 10 µM
same,IC50,second compound 3.16 µM,> 10 µM
same,IC50,second compound 10 µM,> 10 µM
same,"viability, T/C",[1],103%
same,"viability, T/C",[2],112%
same,"viability, T/C",[3],97.8%
same,"viability, T/C",[4],105%
same,"viability, T/C",[5],109%
same,"viability, T/C",[6],51.5%
same,"viability, T/C",[7],91.3%
same,"viability, T/C",[8],88.9%
same,"viability, T/C",[9],95.9%
same,"viability, T/C",[10],93.4%
same,"viability, T/C",[11],95%
same,"viability, T/C",[12],56.1%
same,"viability, T/C",[13],91.3%
same,"viability, T/C",[14],92.7%
same,"viability, T/C",[15],108%
same,"viability, T/C",[16],96.8%
same,"viability, T/C",[17],94.4%
same,"viability, T/C",[18],58.5%
same,"viability, T/C",[19],80.9%
same,"viability, T/C",[20],82.8%
same,"viability, T/C",[21],86.1%
same,"viability, T/C",[22],101%
same,"viability, T/C",[23],94.8%
same,"viability, T/C",[24],55.9%
same,"viability, T/C",[25],86.4%
same,"viability, T/C",[26],87.4%
same,"viability, T/C",[27],97.1%
same,"viability, T/C",[28],85%
same,"viability, T/C",[29],93.9%
same,"viability, T/C",[30],53.4%
same,"viability, T/C",[31],58.5%
same,"viability, T/C",[32],58.1%
same,"viability, T/C",[33],75.3%
same,"viability, T/C",[34],65.3%
same,"viability, T/C",[35],66.1%
same,"viability, T/C",[36],49.5%
COc1ncnc(C2CC2)c1-c1ncc2cnn(Cc3ccc(-c4nc(C(F)(F)F)cn4C(C)C)cc3)c2n1 + CN(C)c1ccc(Nc2c3ccc(NC(=O)CCN4CCCC4)cc3nc3cc(NC(=O)CCN4CCCC4)ccc23)cc1,IC50,second compound 0.0316 µM,> 10 µM
same,IC50,second compound 0.1 µM,> 10 µM
same,IC50,second compound 0.316 µM,> 10 µM
same,IC50,second compound 1 µM,> 10 µM
same,IC50,second compound 3.16 µM,> 10 µM
same,IC50,second compound 10 µM,4.55 µM
same,"viability, T/C",[1],113%
same,"viability, T/C",[2],103%
same,"viability, T/C",[3],116%
same,"viability, T/C",[4],114%
same,"viability, T/C",[5],135%
same,"viability, T/C",[6],140%
same,"viability, T/C",[7],97.7%
same,"viability, T/C",[8],112%
same,"viability, T/C",[9],107%
same,"viability, T/C",[10],112%
same,"viability, T/C",[11],148%
same,"viability, T/C",[12],122%
same,"viability, T/C",[13],95.4%
same,"viability, T/C",[14],123%
same,"viability, T/C",[15],118%
same,"viability, T/C",[16],121%
same,"viability, T/C",[17],115%
same,"viability, T/C",[18],117%
same,"viability, T/C",[19],105%
same,"viability, T/C",[20],109%
same,"viability, T/C",[21],115%
same,"viability, T/C",[22],122%
same,"viability, T/C",[23],112%
same,"viability, T/C",[24],115%
same,"viability, T/C",[25],86%
same,"viability, T/C",[26],93%
same,"viability, T/C",[27],101%
same,"viability, T/C",[28],111%
same,"viability, T/C",[29],114%
same,"viability, T/C",[30],82.8%
same,"viability, T/C",[31],74%
same,"viability, T/C",[32],74.7%
same,"viability, T/C",[33],69.5%
same,"viability, T/C",[34],76.7%
same,"viability, T/C",[35],68.1%
same,"viability, T/C",[36],10.3%
